One may read the IC50 as the concentration that inhibits the measured activity by half.

Read-outs that look alike come from different tables or passages of the source.

Assay type in all cases: cell-based
One test concerns Kyn levels in HeLa cells. Put plainly: Manual Kyn assay in HeLa cells (p-DMAB detection). To be noted: IFN-γ, L-Trp, compounds 48 h, p-DMAB, mean n=3 ±SD, read-out: Kyn Assay IC50. The protocol: Mammalian cell lines were maintained at 37°C and 5% CO2 in a humidified atmosphere and sub-cultivated twice a week. All cell lines were tested regularly for mycoplasma contamination and were always free of mycoplasma. BxPC-3 cells (DSMZ#760) were grown in RPMI-1640 medium supplemented with 10% FBS, 2 mM L-glutamine, 1 mM sodium pyruvate, 4.5 g/L glucose, 10 mM HEPES and 1.5 g/L NaHCO3. HeLa cells (DSMZ#57) were cultivated in DMEM supplemented with 10% FBS, 4.5 g/L glucose, 4 mM L-glutamine 1 mM sodium pyruvate, 1% non-essential amino acids, 3.7 g/L NaHCO3. SKOV-3 cells (ATCC#HTB-77) were maintained in modified McCoy’s 5A medium supplemented with 10% FBS, 1.5 mM L-glutamine and 2.2 g/L NaHCO3. […]
For manual testing, BxPC-3, HeLa or SKOV-3 cells (20,000 cells/well, 5,000 cells/well or 6,250 cells/well, respectively) were seeded in 96-well plates (BxPC-3 and HeLa) or 384-well plates (SKOV-3) in medium without phenol red. After 24 h, the IDO1 pathway was induced by addition of 50 ng/mL (BxPC-3 and HeLa) or 17.6 ng/mL IFN-γ (SKOV-3) and 380 µM (BxPC-3), 164.15 µM (HeLa) or 450 µM L-Trp (SKOV-3) with simultaneous treatment with the compounds at the indicated concentrations followed by incubation for 48 h. For the hemin competition assay, hemin was added together with IFN-γ, L-Trp and the compounds. Subsequently, trichloroacetic acid was added to a final concentration of 7% (v/v), the plates were incubated for 15 min at room […]
temperature and centrifuged for 10 min at 1800 x g. Afterwards, an equal volume of freshly prepared 2% (w/v) p-DMAB in glacial acetic acid (Ehrlich reagent) was added prior to measuring the absorbance at 492 nm and 650 nm on the Spark® Multimode Microplate Reader (Tecan, AT).
To determine the Kyn levels, the absorbance of the Kyn-p-DMAB adduct A492 was subtracted by the background absorbance A650 and normalized to the DMSO control. Data analysis was performed using a non-linear regression curve fit and GraphPad Prism 9.0 (GraphPad Software, Inc, US) to generate dose-response curves and obtain IC50 values. […]
Subsequently, 10 mM ascorbic acid, 10 μM methylene blue, 2 mM L-Trp and 100 μg/mL catalase were added and samples were incubated for 60 min at room temperature or 37°C. […]

Test [1] has as its system L-Trp uptake in BxPC-3 cells. Put plainly: Trp uptake assay in BxPC-3 cells (HPLC-MS/MS). To be noted: BxPC-3 starved for L-Trp 72 h, ±IFN-γ; 5 mM L-Leu, 1 mM 1-MT, 5 µM compound. The protocol: GraphPad Prism 9.0 (GraphPad Software, Inc, US) to generate dose-response curves and obtain […]
IDO1 promoter reporter gene assay
HEK293T cells (25,000 cells/well) were reverse-transfected with pXPG-IDO1[16] (4 µg/96-well plate, kindly provided by Gina M. Doody, Leeds, UK) and pRL-TK (300 ng/96-well plate, Promega, US) using Lipofectamine™ 2000 (Invitrogen, USA) pri or to incubation for 24 h. Afterwards, cells were treated with 50 ng/mL IFN-γ and the compounds for 48 h. Luminescence generated by the Fluc reporter and the control reporter Rluc was measured using the Dual-Glo ® Luciferase Assay System (Promega, US) on the Spark® Multimode Microplate Reader (Tecan, AT). To determine the IDO1 promoter activity, Fluc signals were divided by Rluc signals and normalized to the values of the DMSO control. Data analysis was performed using a non-linear regression curve fit and […]
BxPC-3 cells (30,000 cells/well) were seeded in 96-well plates in Trp-free RPMI 1640 medium and incubated for 48 h prior addition of 50 ng/mL IFN-γ. Trp starvation was continued for another 24 h. Afterwards, medium was exchanged for Trp-free medium containing the control inhibitors 5 mM L-Leu (inhibitor of system-L amino acid transporters (LAT)), 1 mM 1-methyl-L-tryptophan (inhibitor of tryptophanyl-tRNA synthetase (TrpRS)) and compounds and cells were incubated for 30 min. Subsequently, 50 µM L-Trp was added and samples were incubated for another 30 min.
The supernatant was transferred to a new plate, trichloroacetic acid was added to a final concentration of 7% (v/v) and plates were incubated for 15 min at room temperature. Samples were centrifuged for 10 min at 1800 x g and L-Trp was quantified by HPLC-MS/MS using the LTQ Velos Pro and Dionex HPLC (Thermo Fisher Scientific, US). Data analysis was performed with Xcalibur™ (Thermo Fisher Scientific, US) and repres ented using GraphPad Prism 9.0 (GraphPad […]
RNA purification and RT-qPCR
HeLa cells (250,000 cells/well) were seeded in 6-well plates and incubated for 24 h prior addition of 50 ng/mL IFN-γ and compounds. […]

For test [2], the system named is Kyn levels in BxPC-3 cells. Briefly: Automated (high-throughput) Kyn assay in BxPC-3 cells (Kyn sensor). The conditions noted are these: Homo sapiens, BXPC-3; footnote e: value from automated Kyn Assay. The protocol: Mammalian cell lines were maintained at 37°C and 5% CO2 in a humidified atmosphere and sub-cultivated twice a week. All cell lines were tested regularly for mycoplasma contamination and were always free of mycoplasma. BxPC-3 cells (DSMZ#760) were grown in RPMI-1640 medium supplemented with 10% FBS, 2 mM L-glutamine, 1 mM sodium pyruvate, 4.5 g/L glucose, 10 mM […]
HEPES and 1.5 g/L NaHCO3. […]
High-throughput Kyn assay
Automated screening for modulators of Kyn levels in BxPC-3 cells was performed as published earlier.[2] Briefly, BxPC-3 cells (1,000 cells/well) were seeded in black 1536-well plates prior to incubation for 24 h and subsequent treatment with compounds, 380 µM L-Trp and 50 ng/mL IFN-γ for 48 h. Afterwards, trichloroacetic acid was added to a final concentration of 7% (v/v), the plates were incubated for 10 min at 37°C and centrifuged for 10 min at 1620 x g. Kyn was detected by addition of 17.5 µM Kyn sensor[14] in assay buffer (excitation: 535 nm, emission: […]

With `COC(=O)[C@]1(c2cc3ccccc3n2C)CC=C(C(=O)OCc2ccccc2)[C@@H](C(=O)OC(C)(C)C)N1S(=O)(=O)c1ccc(C)cc1` [Compound 3p], in the test with Kyn levels in HeLa cells (Homo sapiens, HeLa, 48 h), the IC50 was 1650 ± 230 nM. Regarding `CCOC(=O)C1=CC[C@](C(=O)OC)(c2cc3ccccc3n2C)N(S(=O)(=O)c2cccc(C(F)(F)F)c2)[C@@H]1C(=O)OC(C)(C)C` [Compound 3i], in the test on Kyn levels in HeLa cells (Homo sapiens, HeLa, 48 h), the IC50 stood at 1540 ± 410 nM. For the molecule `Cn1cc(C[C@H](N)C(=O)O)c2ccccc21` [Compound 1-MT, 1-methyl-L-tryptophan], the “uptake (import) of L-Trp” value in test [1] was “inhibit the uptake”. For the molecule `Cn1c([C@H]2CC=C(C(=O)OCc3ccccc3)[C@@H](C(=O)OC(C)(C)C)N2S(=O)(=O)c2ccccc2[N+](=O)[O-])cc2ccccc21` [Compound 3r], the IC50 with Kyn levels in HeLa cells (Homo sapiens, HeLa, 48 h) turned out to be 890 ± 190 nM.

Regarding `CCOC(=O)C1=CC[C@@](C(=O)OC)(c2cc3ccccc3n2C)N(S(=O)(=O)c2ccccc2[N+](=O)[O-])[C@H]1C(=O)OCC` [3a^a], in the test on Kyn levels in HeLa cells (Homo sapiens, HeLa, 48 h), the IC50 is above 10000 nM. On to `COC(=O)[C@]1(c2cc3ccccc3n2C)CC=C(C(=O)OCc2ccccc2)[C@@H](C(=O)OC(C)(C)C)N1S(=O)(=O)c1ccccc1[N+](=O)[O-]` [Compound 3l], for which the IC50 in the test on Kyn levels in HeLa cells (listed as 3l^a) is 2880 ± 130 nM; with Kyn levels in HeLa cells it was 1390 ± 90 nM. For the molecule `CCOC(=O)C1=CC[C@](C(=O)OC)(c2cc3ccccc3n2C)N(S(=O)(=O)c2ccccc2[N+](=O)[O-])[C@@H]1C(=O)OCc1ccccc1` [Compound 3n], the IC50 in the test with Kyn levels in HeLa cells (Homo sapiens, HeLa, 48 h) stood at 7520 ± 800 nM. In test [2], `CCOC(=O)C1=CC[C@H](c2cc3ccccc3n2C)N(S(=O)(=O)c2ccc(C)cc2)[C@@H]1C(=O)OC(C)(C)C` [3e^e] registered an IC50 of 260 ± 50 nM. With `CCOC(=O)C1=CC[C@](C(=O)OC)(c2cc3ccccc3n2C)N(S(=O)(=O)c2ccccc2)[C@@H]1C(=O)OC(C)(C)C` [Compound 3g], the IC50 with Kyn levels in HeLa cells (Homo sapiens, HeLa, 48 h) came out at 80 ± 10 nM. As to `CCOC(=O)C1=CC[C@](C(=O)OC)(c2cc3ccccc3n2C)N(S(=O)(=O)c2ccc(F)cc2)[C@@H]1C(=O)OC(C)(C)C` [Compound 3q], the IC50 in the test on Kyn levels in HeLa cells (Homo sapiens, HeLa, 48 h) was found to be 110 ± 20 nM. For the molecule `CCOC(=O)C1=CC[C@](C(=O)OC)(c2cc3ccccc3n2C)N(S(C)(=O)=O)[C@@H]1C(=O)OC(C)(C)C` [Compound 3f], the IC50 was determined as 80 ± 10 nM in the test with Kyn levels in HeLa cells (Homo sapiens, HeLa, 48 h) and 90 ± 10 nM in the test with Kyn levels in HeLa cells (listed as 3f^bc). For the molecule `CCOC(=O)[C@@H]1C(C(=O)OC(C)(C)C)=CC[C@](C(=O)OC)(c2cc3ccccc3n2C)N1S(=O)(=O)c1ccccc1[N+](=O)[O-]` [Compound 3m], the IC50 with Kyn levels in HeLa cells (Homo sapiens, HeLa, 48 h) stood at 2460 ± 290 nM. Still for that read-out and setting: the result for `CCOC(=O)[C@@H]1C(C(=O)OC(C)(C)C)=CC[C@](C(=O)OC)(c2cc3ccccc3n2C)N1S(=O)(=O)c1ccc(C)cc1` [Compound 3j] reads 760 ± 40 nM. In the case of `CCOC(=O)C1=CC[C@H](c2cc3ccccc3n2C)N(S(=O)(=O)c2ccccc2[N+](=O)[O-])[C@@H]1C(=O)OC(C)(C)C` [Compound 3c], the results for the IC50 with Kyn levels in HeLa cells (listed as 3c^b) and in the test with Kyn levels in HeLa cells were 480 ± 60 nM and 1040 ± 80 nM, respectively. `CCOC(=O)[C@@H]1C(C(=O)OC(C)(C)C)=CC[C@H](c2cc3ccccc3n2C)N1S(=O)(=O)c1ccc(C)cc1` [Compound 3k]: in the test with Kyn levels in HeLa cells (Homo sapiens, HeLa, 48 h), the IC50 turned out to be 1630 ± 160 nM. For the molecule `COC(=O)[C@]1(c2cc3ccccc3n2C)CC=C(C(=O)OC(C)(C)C)[C@@H](C(=O)OC(C)(C)C)N1S(=O)(=O)c1ccccc1[N+](=O)[O-]` [Compound 3o], the values for the IC50 in the test on Kyn levels in HeLa cells (listed as 3o^a), with Kyn levels in HeLa cells (listed as 3o^b) and in the test with Kyn levels in HeLa cells were 820 ± 700 nM, 160 ± 50 nM and 650 ± 80 nM, respectively.

Regarding `CCOC(=O)C1=CC[C@](C(=O)OC)(c2cc3ccccc3n2C)N(S(=O)(=O)c2ccc(Br)cc2)[C@@H]1C(=O)OC(C)(C)C` [Compound 3h], the IC50 in the test with Kyn levels in HeLa cells (Homo sapiens, HeLa, 48 h) is 430 ± 150 nM. Consider `CC(C)C[C@H](N)C(=O)O` [L-Leu, L-leucine], for which, in test [1], the “uptake (import) of L-Trp” value was “inhibit the uptake”.
